Source: US20220403339A1, “3D HUMAN LIVER ORGAN MODEL CONSTRUCTING METHOD, 3D HUMAN LIVER ORGAN MODEL AND USE THEREOF” (priority 2020, published 2022)

Tests used:
[1] = test system: human liver cancer cell lines hepG2; format: cell-based; conditions: 100 μM drug; 3D model I-1 (hepG2, 2000 cells per micropore) vs 2D comparison model I; FIG. 8
Protocol: (§1) 3. […] In a long-time administration test of the 3D human liver organ model, 100 μM is administered once, and if repeated administration is required, a drug is changed in the middle and the concentration is maintained. Each 3D human liver organ model and each 2D liver organ model need to be provided with a blank group, a negative control group and a positive control group, and each group is provided with six replicate wells.
(§2) 4. […] After drug incubation is completed, the culture medium with the drugs is removed, 100 μL of a mixed solution of a cell titer blue stock solution and a complete culture medium in a ratio of 1:5 is added, incubation is conducted for 3 h at 37° C., and a detection wavelength is […]. For example, the Cell titer 3D glo is added to evaluate the ATP of the 3D liver model, so that the action effect of the drugs is evaluated. After drug incubation is completed, the culture medium with the drugs is removed, 100 μL of a mixed solution of a Cell titer 3D glo stock solution and a complete culture medium in a ratio of 1:1 is added, incubation is conducted for 0.5 h at normal temperature, and detection is conducted in a Luminescence mode. For example, a high-content imaging technology is used for imaging characterization of the number of living and dead cells, and characterization of cell mitochondrial activity and membrane potential to evaluate hepatotoxicity drugs. The embodiment is applicable to, but not limited to, the above characterization method.

[2] = test system: human primary liver cells; conditions: 100 μM drug; 3D model II-2 (human primary liver cells, 5000 cells per micropore) vs 2D comparison model II; FIG. 15
Protocol: as §1, §2

[3] = clinical classification; cited from earlier work

SMILES | hepatotoxicity inhibition on the 3D liver organ model compared with the 2D liver organ comparison model [1] | hepatotoxicity inhibition on the 3D liver organ model compared with the 2D liver organ comparison model [2] | clinically confirmed hepatotoxicity class [3]
COc1ccccc1Oc1c(NS(=O)(=O)c2ccc(C(C)(C)C)cc2)nc(-c2ncccn2)nc1OCCO [compound 5, bosentan] | stronger hepatotoxicity inhibition | stronger hepatotoxicity inhibition | low-hepatotoxicity
CN(CCOc1ccc(CC2SC(=O)NC2=O)cc1)c1ccccn1 (stereo not drawn) [compound 6, rosiglitazone] | stronger hepatotoxicity inhibition | stronger hepatotoxicity inhibition | low-hepatotoxicity
Cc1ccc(-c2cc(C(F)(F)F)nn2-c2ccc(S(N)(=O)=O)cc2)cc1 [compound 8, celecoxib] | stronger hepatotoxicity inhibition |  | low-hepatotoxicity
CN(C)[C@@H]1C(=O)C(C(N)=O)=C(O)[C@@]2(O)C(=O)C3=C(O)c4c(O)cccc4[C@@](C)(O)[C@H]3C[C@@H]12 [compound 9, tetracycline] |  | stronger hepatotoxicity inhibition | low-hepatotoxicity
O=C(OCC(O)CO)c1ccccc1Nc1ccnc2cc(Cl)ccc12 (stereo not drawn) [compound 10, glafenine] |  | stronger hepatotoxicity inhibition | low-hepatotoxicity
CN(C)CCC=C1c2ccccc2CCc2ccccc21 [compound 12, amitriptyline] | stronger hepatotoxicity inhibition |  | low-hepatotoxicity
CC(=O)Nc1ccc(O)cc1 [compound 15, paracetamol] |  | stronger hepatotoxicity inhibition | 
